Source: patent publication US20130184222A1, “[…] ACTIVE COMPOSITIONS AND THEIR METHODS OF USE” (AGIOS PHARMACEUTICALS, INC, priority 2010, published 2013)

Tests used:
IDH1 R132H = IDH1 R132H (Homo sapiens, UniProt O75874, R132H); assay: In vitro assay for IDH1 R132H inhibitors (NADPH/aKG, resazurin detection); format: biochemical; details: Table 4B; 0.2 μg/ml IDH1 R132H, 50 minutes at room temperature; read-out: IC50, IDH1 R132H Inhibition
How it was run: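 Buffer: 150 mM NaCl, 10 mM MgCl2, 20 mM Tris pH 7.5, 0.03% BSA. Compound was added to substrate mix (8 uM NADPH, 2 mM aKG), then enzyme mix (0.2 μg/ml IDH1 R132H), and incubated 50 min at room temperature. Remaining NADPH was read by resazurin (30 μM in detection mix) to resorufin fluorescence after 5 min, Ex544/Em590.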

HT1080 cells = assay: Cellular assay: inhibition of 2-HG production in HT1080 cells (LC-MS, 48 hours); format: cell-based; details: Homo sapiens, HT-1080, 2-HG in media by LC-MS
How it was run: (§1)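 HT1080 or U87MG cells (5000/well, DMEM + 10% FBS) seeded overnight, then exposed to compound (0.2% DMSO final) for 48 h; medium 2-HG measured by LC-MS. Viability read by CellTiter-Glo luminescence at 72 h.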

U87MG cells = assay: Cellular assay: inhibition of 2-HG production in U87MG cells (LC-MS, 48 hours); format: cell-based; details: Homo sapiens, U-87 MG, 2-HG in media by LC-MS
How it was run: as §1

Chain of IDH1 R132H (O75874 whole entry R132H): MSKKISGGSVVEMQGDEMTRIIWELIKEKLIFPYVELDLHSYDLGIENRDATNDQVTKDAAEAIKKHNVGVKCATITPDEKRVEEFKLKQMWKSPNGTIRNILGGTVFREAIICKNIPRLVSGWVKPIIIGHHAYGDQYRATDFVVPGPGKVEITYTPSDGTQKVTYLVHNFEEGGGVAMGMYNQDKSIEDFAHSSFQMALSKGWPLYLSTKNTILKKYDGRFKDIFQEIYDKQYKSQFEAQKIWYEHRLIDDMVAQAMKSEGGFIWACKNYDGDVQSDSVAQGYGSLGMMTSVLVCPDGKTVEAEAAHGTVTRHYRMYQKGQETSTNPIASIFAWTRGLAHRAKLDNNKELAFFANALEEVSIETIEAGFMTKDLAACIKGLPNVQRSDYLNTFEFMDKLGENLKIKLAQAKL

IC50 (IDH1 R132H) [µM] | IC50 (HT1080 cells) [µM] | IC50 (U87MG cells) [µM] | SMILES
≤ 0.1 | ≤ 0.25 | ≤ 0.25 | COC(=O)NCC(=O)N(c1cccc(F)c1)C(C(=O)NC1CCCCC1)c1ccccc1C (stereo not drawn) [Compound 334]
0.1 to 1 | 0.25 to 1 | 1 to 5 | COC(=O)N1CCCC[C@@H]1C(=O)N(c1cccc(F)c1)[C@H](C(=O)NC1CCCCC1)c1ccccc1C [Compound 335]
0.1 to 1 | 0.25 to 1 | 0.25 to 1 | COC(=O)N1CCCC[C@H]1C(=O)N(c1cccc(F)c1)[C@H](C(=O)NC1CCCCC1)c1ccccc1C [Compound 336]
0.1 to 1 | 0.25 to 1 | 1 to 5 | Cc1ccccc1[C@@H](C(=O)NC1CCCCC1)N(C(=O)[C@H]1CCCCN1C(=O)OC(C)C)c1cccc(F)c1 [Compound 338]
0.1 to 1 | 1 to 5 | 1 to 5 | Cc1ccccc1[C@@H](C(=O)NC1CCCCC1)N(C(=O)[C@@H]1CCCCN1C(=O)OC(C)C)c1cccc(F)c1 [Compound 339]
0.1 to 1 | 1 to 5 | 0.25 to 1 | Cc1ccccc1[C@@H](C(=O)NC1CCCCC1)N(C(=O)[C@H]1CCCN1C(=O)OC(C)(C)C)c1cccc(F)c1 [Compound 340]
≤ 0.1 | ≤ 0.25 | ≤ 0.25 | COC(=O)N(C)CC(=O)N(c1cccc(F)c1)C(C(=O)NC1CCCCC1)c1ccccc1C (stereo not drawn) [Compound 341]
0.1 to 1 | 0.25 to 1 | 0.25 to 1 | Cc1ccccc1C(C(=O)NC1CCC(F)(F)CC1)N(C(=O)CNc1ncccc1F)c1cccc(F)c1 (stereo not drawn) [Compound 342]
0.1 to 1 | 0.25 to 1 | ≤ 0.25 | Cc1ccccc1C(C(=O)NC1CCCCC1)N(C(=O)Cn1ccnc1C(F)(F)F)c1cccc(F)c1 (stereo not drawn) [Compound 344]
0.1 to 1 | 1 to 5 | 1 to 5 | CCOC(=O)N1CCCC[C@@H]1C(=O)N(c1cccc(F)c1)[C@H](C(=O)NC1CCCCC1)c1ccccc1C [Compound 345]
0.1 to 1 | 0.25 to 1 | 0.25 to 1 | Cc1ccccc1[C@@H](C(=O)NC1CCCCC1)N(C(=O)[C@H]1CCCCN1S(C)(=O)=O)c1cccc(F)c1 [Compound 346]
0.1 to 1 | 1 to 5 | 1 to 5 | CCC(=O)N1CCCC[C@@H]1C(=O)N(c1cccc(F)c1)[C@H](C(=O)NC1CCCCC1)c1ccccc1C [Compound 347]
≤ 0.1 | ≤ 0.25 | ≤ 0.25 | [2H]C1([2H])C([2H])([2H])C([2H])([2H])C([2H])(NC(=O)C(c2ccccc2C)N(C(=O)COc2ccccn2)c2cccc(F)c2)C([2H])([2H])C1([2H])[2H] (stereo not drawn) [Compound 351]
0.1 to 1 | 0.25 to 1 | 0.25 to 1 | Cc1ccccc1C(C(=O)NC1CC2CC2C1)N(C(=O)COc1ccccn1)c1cccc(F)c1 (stereo not drawn) [Compound 354]
≤ 0.1 | ≤ 0.25 | ≤ 0.25 | COC(=O)N1CCC[C@H]1C(=O)N(c1cccc(F)c1)[C@H](C(=O)NC1CCCCC1)c1ccccc1C [Compound 356]
0.1 to 1 | 0.25 to 1 | 0.25 to 1 | COC(=O)NCC(=O)N(c1ccccc1F)C(C(=O)NC1CCCCC1)c1ccccc1C (stereo not drawn) [Compound 357]
≤ 0.1 | 0.25 to 1 | ≤ 0.25 | CCOC(=O)N1CCC[C@H]1C(=O)N(c1cccc(F)c1)[C@H](C(=O)NC1CCCCC1)c1ccccc1C [Compound 359]
≤ 0.1 | ≤ 0.25 | ≤ 0.25 | [2H]C1([2H])C([2H])([2H])C([2H])([2H])C([2H])(NC(=O)C(c2ccccc2C)N(C(=O)CNc2ncccc2F)c2cccc(F)c2)C([2H])([2H])C1([2H])[2H] (stereo not drawn) [Compound 361]
0.1 to 1 | 1 to 5 | 0.25 to 1 | Cc1ccccc1[C@@H](C(=O)NC1CCCCC1)N(C(=O)[C@H]1CCCN1S(C)(=O)=O)c1cccc(F)c1 [Compound 363]
0.1 to 1 | 1 to 5 | 0.25 to 1 | CC(=O)N1CCC[C@H]1C(=O)N(c1cccc(F)c1)[C@H](C(=O)NC1CCCCC1)c1ccccc1C [Compound 370]
0.1 to 1 | 0.25 to 1 | 0.25 to 1 | Cc1ccccc1C(C(=O)NC1CCC(F)(F)CC1)N(C(=O)Cn1ccnc1C(F)(F)F)c1cccc(F)c1 (stereo not drawn) [Compound 373]
0.1 to 1 | 1 to 5 | 1 to 5 | COC(=O)NCCC(=O)N(c1cccc(F)c1)C(C(=O)NC1CCCCC1)c1ccccc1C (stereo not drawn) [Compound 374]
≤ 0.1 | 0.25 to 1 | 0.25 to 1 | Cc1ccccc1C(C(=O)NC1CCC(F)(F)CC1)N(C(=O)CNc1cccnc1F)c1cccc(F)c1 (stereo not drawn) [Compound 378]

More lines, now with the values behind:

SMILES | IC50 (IDH1 R132H) [µM] | IC50 (HT1080 cells) [µM] | IC50 (U87MG cells) [µM]
COC(=O)N1CCCC1C(=O)N(c1cccc(F)c1)C(C(=O)NC1CCCCC1)c1ccccc1C (stereo not drawn) [Compound 306] | ≤ 0.1 | 0.25 to 1 | ≤ 0.25
O=C(NC1CCCCC1)C(c1ccccc1Cl)N(C(=O)Cc1cscn1)c1cccc(F)c1 (stereo not drawn) [Compound 307] | ≤ 0.1 | 0.25 to 1 | 0.25 to 1
Cc1ccccc1C(C(=O)NC1CCCCC1)N(C(=O)CNc1ncc[nH]1)c1cccc(F)c1 (stereo not drawn) [Compound 308] | 0.1 to 1 | 1 to 5 | ≤ 0.25
Cc1cnn(CC(=O)N(c2cccc(F)c2)C(C(=O)NC2CCCCC2)c2ccccc2C)c1 (stereo not drawn) [Compound 309] | 0.1 to 1 | 0.25 to 1 | 1 to 5
Cc1ccccc1C(C(=O)NC1CCCCC1)N(C(=O)CNc1cncc(F)c1)c1cccc(F)c1 (stereo not drawn) [Compound 310] | 0.1 to 1 | 0.25 to 1 | 1 to 5
Cc1ccccc1C(C(=O)NC1CCCCC1)N(C(=O)Cc1ccncc1)c1cccc(F)c1 (stereo not drawn) [Compound 311] | ≤ 0.1 | ≤ 0.25 | ≤ 0.25
Cc1nccn1CC(=O)N(c1cccc(F)c1)C(C(=O)NC1CCCCC1)c1ccccc1F (stereo not drawn) [Compound 312] | 0.1 to 1 | 1 to 5 | ≤ 0.25
CN(C)C(=O)Oc1ccc(CC(=O)N(c2cccc(F)c2)C(C(=O)NC2CCCCC2)c2ccccc2F)cc1 (stereo not drawn) [Compound 313] | ≤ 0.1 | ≤ 0.25 | ≤ 0.25
Cc1nccn1CC(=O)N(c1cccc(F)c1)C(C(=O)NC1CCCCC1)c1ccccc1Cl (stereo not drawn) [Compound 314] | ≤ 0.1 | ≤ 0.25 | ≤ 0.25
Cc1ccccc1C(C(=O)NC1CCCCC1)N(C(=O)Cn1ccnc1C)c1cccc(-c2ccnn2C)c1 (stereo not drawn) [Compound 315] | 0.1 to 1 | 1 to 5 | ≤ 0.25
Cc1ccccc1C(C(=O)NC1CCCCC1)N(C(=O)CNc1ccccn1)c1cccc(F)c1 (stereo not drawn) [Compound 316] | ≤ 0.1 | ≤ 0.25 | 0.25 to 1
Cc1ccccc1C(C(=O)NC1CCCCC1)N(C(=O)Cn1cccn1)c1cccc(F)c1 (stereo not drawn) [Compound 317] | 0.1 to 1 | 0.25 to 1 | 1 to 5
Cc1ccccc1C(C(=O)NC1CCCCC1)N(C(=O)CNC1Cc2cccnc2C1)c1cccc(F)c1 (stereo not drawn) [Compound 318] | 0.1 to 1 | 0.25 to 1 | 0.25 to 1
Cc1ccccc1C(C(=O)NC1CCCCC1)N(C(=O)Cn1cc[nH]c1=O)c1cccc(F)c1 (stereo not drawn) [Compound 319] | 0.1 to 1 | 1 to 5 | 1 to 5
O=C(NC1CCCCC1)C(c1ccccc1F)N(C(=O)Cc1cscn1)c1cccc(F)c1 (stereo not drawn) [Compound 320] | ≤ 0.1 | 0.25 to 1 | 0.25 to 1
O=C(NC1CCCCC1)C(c1ccccc1F)N(C(=O)Cn1cnc2ccccc21)c1cccc(F)c1 (stereo not drawn) [Compound 321] | ≤ 0.1 | ≤ 0.25 | ≤ 0.25
N#Cc1ccc(NCC(=O)N(c2cccc(F)c2)C(C(=O)NC2CCCCC2)c2ccccc2Cl)cc1 (stereo not drawn) [Compound 322] | ≤ 0.1 | ≤ 0.25 | ≤ 0.25
O=C(NC1CCCCC1)C(c1ccccc1F)N(C(=O)Cn1ccc2ncccc21)c1cccc(F)c1 (stereo not drawn) [Compound 324] | 0.1 to 1 | 1 to 5 | 0.25 to 1
Cc1ccccc1C(C(=O)NC1CC2CC2C1)N(C(=O)Cn1ccc2ncccc21)c1cccc(F)c1 (stereo not drawn) [Compound 325] | 0.1 to 1 | 1 to 5 | 1 to 5
Cc1ccccc1C(C(=O)NC1CCCCC1)N(C(=O)Cn1ccnc1N)c1cccc(F)c1 (stereo not drawn) [Compound 326] | 0.1 to 1 | 0.25 to 1 | ≤ 0.25
Cc1ccccc1C(C(=O)NC1CC2CC2C1)N(C(=O)Cn1ccnc1C)c1cccc(F)c1 (stereo not drawn) [Compound 327] | 0.1 to 1 | 1 to 5 | ≤ 0.25
CCC(=O)N1CCCCC1C(=O)N(c1cccc(F)c1)C(C(=O)NC1CCCCC1)c1ccccc1C (stereo not drawn) [Compound 328] | 0.1 to 1 | 1 to 5 | 1 to 5
Cc1ccccc1C(C(=O)NC1CCC(F)(F)CC1)N(C(=O)Cn1ccnc1C)c1cccc(F)c1 (stereo not drawn) [Compound 330] | 0.1 to 1 | 0.25 to 1 | ≤ 0.25
Cc1ccccc1C(C(=O)NC1CCC(F)(F)CC1)N(C(=O)COc1ccccn1)c1cccc(F)c1 (stereo not drawn) [Compound 331] | ≤ 0.1 | ≤ 0.25 | ≤ 0.25
Cc1ccccc1[C@@H](C(=O)NC1CCCCC1)N(C(=O)[C@H]1CCCCN1C(=O)OC(C)(C)C)c1cccc(F)c1 [Compound 332] | 0.1 to 1 | 0.25 to 1 | 1 to 5
Cc1ccccc1C(C(=O)NC1CC2CC2C1)N(C(=O)CNc1ncccc1F)c1cccc(F)c1 (stereo not drawn) [Compound 333] | 0.1 to 1 | ≤ 0.25 | 1 to 5
